{
  "source": "paper PMC8112869",
  "about": "“Therapeutic inhibition of keratinocyte TRPV3 sensory channel by local anesthetic dyclonine” (eLife, 2021)",
  "key": {"mouse TRPV3": {"target": "T1, mouse TRPV3 (Mus musculus, UniProt Q8K424)", "T1 sequence (Q8K424 1-791)": "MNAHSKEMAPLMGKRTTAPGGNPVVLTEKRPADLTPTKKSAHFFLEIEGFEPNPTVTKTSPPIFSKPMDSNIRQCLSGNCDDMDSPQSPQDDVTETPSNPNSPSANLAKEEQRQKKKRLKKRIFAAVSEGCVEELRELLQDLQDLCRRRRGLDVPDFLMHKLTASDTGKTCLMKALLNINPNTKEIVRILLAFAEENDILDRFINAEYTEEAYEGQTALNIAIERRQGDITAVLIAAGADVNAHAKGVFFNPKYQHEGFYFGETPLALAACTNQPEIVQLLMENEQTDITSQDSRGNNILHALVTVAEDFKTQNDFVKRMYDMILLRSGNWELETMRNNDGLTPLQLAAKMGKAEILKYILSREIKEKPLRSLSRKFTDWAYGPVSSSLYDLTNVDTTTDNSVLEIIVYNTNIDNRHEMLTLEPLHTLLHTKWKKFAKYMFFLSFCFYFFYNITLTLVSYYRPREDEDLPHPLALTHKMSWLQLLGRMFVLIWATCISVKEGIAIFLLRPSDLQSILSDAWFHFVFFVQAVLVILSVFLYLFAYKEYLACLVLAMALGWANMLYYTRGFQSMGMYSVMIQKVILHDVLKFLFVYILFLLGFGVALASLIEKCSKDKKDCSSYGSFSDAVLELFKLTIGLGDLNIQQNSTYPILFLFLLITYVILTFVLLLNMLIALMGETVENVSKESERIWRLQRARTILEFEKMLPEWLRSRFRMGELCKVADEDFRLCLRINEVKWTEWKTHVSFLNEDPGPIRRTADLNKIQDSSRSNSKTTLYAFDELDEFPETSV", "assay": "Voltage-step whole-cell recording of TRPV3 currents (40 μM 2-APB) in HEK 293T cells", "type": "cell-based", "parameters": "expressed in transfected cells; host or cells: HEK 293T", "conditions": "steps –160 to +180 mV, dyclonine 10, 30 μM, RR 10 μM", "text": "Conventional whole-cell and excised patch-clamp recording methods were used. For the recombinant expressing system, green fluorescent EGFP was used as a surface marker for gene expression. Recording pipettes were pulled from borosilicate glass capillaries (World Precision Instruments) and fire-polished to a resistance between 2 and 4 MΩ when filled with internal solution containing (in mM) 140 CsCl, 2.0 MgCl2, 5 EGTA, and 10 HEPES, pH 7.4 (adjusted with CsOH). Bath solution contained (in mM): 140 NaCl, 5 KCl, 3 EGTA, and 10 HEPES, pH 7.4 adjusted with NaOH. For recordings in keratinocytes, the bath saline consisted of (in mM) 140 NaCl, 5 KCl, 2 MgCl2, 2 CaCl2, 10 glucoses, and 10 HEPES, pH 7.4 adjusted with NaOH, and the pipette solution contained (in mM) 140 CsCl, 5 EGTA, and 10 HEPES, pH 7.3 adjusted with CsOH. […] For a subset of recordings, currents were amplified using an Axopatch 200B amplifier (Molecular Devices, Sunnyvale, CA) and recorded through a BNC-2090/MIO acquisition system (National Instruments, Austin, TX) using QStudio developed by Dr. Feng Qin at State University of New York at Buffalo. […] As determined by the conductance tests, the solution around a patch under study was fully controlled by the application of a flow rate of 100 μl/min or greater. […]"}, "C57B/6 mice": {"system": "C57B/6 mice", "assay": "Carvacrol-induced itch-scratching behavior in mice", "type": "in vivo, mouse", "description": "To assess itch-scratching behaviors, the hair of the rostral part of the mouse’s right neck was shaved using an electric hair clipper 24 hr before the start of experiments. Trpv3^-/- mice have been described previously ([Wang et al., 2021]). Scratching behaviors were recorded on video. The number of itch-scratching bouts was counted through video playback analysis. One scratching bout was defined as an episode in which a mouse lifted its right hind limb to the injection site and scratched continuously for any time length until this limb was returned to the floor or mouth ([Wilson et al., 2013]). All behavioral experiments were conducted in a double-blind manner. […] [Sun and Dong, 2016])."}},
  "data": [
    {"smiles": "N.N.N.N.N.N.N.N.N.N.N.N.N.N.[Cl-].[Cl-].[Cl-].[Cl-].[Cl-].[Cl-].[O-2].[O-2].[Ru+3].[Ru+3].[Ru+4]", "note": "[RR, ruthenium red]", "values": [
      {"measurement": "effect on TRPV3-mediated inward and outward currents (voltage dependence)", "setting": "mouse TRPV3", "result": "only inhibited TRPV3-mediated inward currents but enhanced outward currents"}
    ]},
    {"smiles": "Cc1ccc(C(C)C)cc1O", "note": "[carvacrol]", "values": [
      {"measurement": "change in the number of scratching bouts", "setting": "C57B/6 mice; TRPV3-/- mice, intradermal carvacrol 0.1%, 50 μl", "result": "did not elicit a remarkable change"},
      {"measurement": "accumulated scratching bouts over 30 min", "setting": "C57B/6 mice; WT TRPV3 mice, intradermal carvacrol 0.1%, 50 μl", "result": "137.2 ± 33.9"},
      {"measurement": "scratching bouts over 30 min", "setting": "C57B/6 mice; carvacrol (0.1%, 50 μl) with pretreatment of normal saline", "result": "137.8 ± 18.3"}
    ]}
  ]
}
